The target of experiment [1] is human COX-2 (Homo sapiens (Human), UniProt P35354). Format: biochemical. Particulars: read-out: COX-2 IC50 (μM) enzyme.
The target of experiment [2] is COX-2 (Mus musculus (Mouse), UniProt Q05769). As to the kind of experiment: Cell-based COX-2 assay (PGE2 in LPS/IFN-g stimulated RAW264.7 cells). Particulars: RAW264.7 murine macrophages, LPS + IFN-g, PGE2 readout. The procedure: Cell culture: RAW264.7 murine macrophages are obtained from the Cell Bank of Shanghai Institute of Biochemistry and Cell Biology, Chinese Academy of Sciences (Shanghai, China) and cultured in Dulbecco's modified Eagle's medium containing 100 U/ml penicillin and 100 µg/ml streptomycin at 37° C. in 5% CO2.
Sequence of COX-2 (Q05769 18-604): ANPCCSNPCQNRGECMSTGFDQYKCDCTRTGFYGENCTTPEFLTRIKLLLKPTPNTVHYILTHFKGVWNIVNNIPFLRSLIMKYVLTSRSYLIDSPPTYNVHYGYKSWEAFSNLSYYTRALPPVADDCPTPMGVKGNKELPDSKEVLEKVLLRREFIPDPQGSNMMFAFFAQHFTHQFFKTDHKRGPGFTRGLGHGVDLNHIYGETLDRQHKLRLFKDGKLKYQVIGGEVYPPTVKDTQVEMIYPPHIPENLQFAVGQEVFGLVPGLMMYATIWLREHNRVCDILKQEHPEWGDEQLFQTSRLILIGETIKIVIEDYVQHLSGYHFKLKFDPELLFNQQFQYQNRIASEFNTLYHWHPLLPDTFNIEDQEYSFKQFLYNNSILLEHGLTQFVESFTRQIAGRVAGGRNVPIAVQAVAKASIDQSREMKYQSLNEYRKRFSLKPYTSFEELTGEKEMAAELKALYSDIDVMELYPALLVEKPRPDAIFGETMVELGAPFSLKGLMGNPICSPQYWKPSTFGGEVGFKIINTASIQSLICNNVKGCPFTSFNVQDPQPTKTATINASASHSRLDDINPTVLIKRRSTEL
The cells are pre-incubated for 30 min with various doses of compounds and stimulated for 7 h with […] LPS and 10 U/ml IFN-g. The cell culture supernatants are collected immediately following treatment and centrifuged at 1,000 rpm for 5 min to remove the particulate matter. PGE2 is determined using a Prostaglandin E2 assay kit (catalog no. 62P2APEB; Cisbio Co.). […] Replace the standard by 10 μL of diluent and PGE2-d2 by 5 μL of reconstitution buffer, Cal0 (for positive control), replace the standard by 10 µL of diluent. Incubate at 4° C. overnight.
(§1) Dose-response curves are generated using XLFit (IDBS, Surrey, UK) or Prism (GraphPad Software, La Jolla, CA, US) to calculate IC50 values for each compound tested.

Experiment [3] concerns the target ovine COX-1 (Ovis aries (Sheep), UniProt P05979). As to the kind of experiment: COX-1/-2 enzyme assay (EIA kit), COX-1. The following applies: ovine COX-1 enzyme immunoassay. Format: biochemical. How it is done: COX-1/-2 enzyme assay: The ability of compounds to inhibit ovine COX-1 and human COX-2 is determined using a commercially available enzyme immunoassay (EIA) kit (catalog no. 701090 (COX-1); 701080 (COX-2) Cayman Chemical Co., Ann Arbor, MI, USA) according to the manufacturer's protocol. COX catalyzes the first step in the biosynthesis of AA to PGH2. PGF2α, produced from PGH2 by reduction with stannous chloride, was measured by EIA (ACE™ competitive EIA, Cayman Chemical, Ann Arbor, MI, USA). Briefly, to a series of supplied reaction buffer solutions [960 μl 0.1 M Tris-HCl (pH 8.0) containing 5 mM EDTA and 2 mM phenol] with either COX-1 or COX-2 (10 μl) enzyme in the presence of heme (10 μl), 10 μl of various concentrations of test drug solutions are added. These solutions are incubated for 15 min at 37° C. and subsequently 10 μl AA solution (100 μM) is added. The COX reaction is stopped by the addition of 30 μl stannous chloride after 2 min, mixed immediately, supernatants are 2000-fold diluted. The produced PGF2α is measured by EIA. This assay is based on the competition between PGs and a PG-acetylcholinesterase conjugate (PG tracer) for a limited amount of PG antiserum. The amount of PG tracer that is able to bind to the PG antiserum is inversely proportional to the concentration of PGs in the wells since the concentration of the PG tracer is held at a constant while the concentration of PGs varies. The specific antiserum-PG complex binds to a mouse anti-rabbit IgG that had been previously attached to the well. The plate is washed to remove any unbound reagents and 200 μl Ellman's reagent (5,5′-dithiobis-(2-nitrobenzoic acid), which contains the substrate to acetylcholine esterase, is added to the well. The product of this enzymatic reaction generates a distinct yellow color that absorbs at 406 nm. The intensity of this color, determined by spectrophotometry, is proportional to the amount of PG tracer bound to the well, which is inversely proportional to the amount of PGs present in the well during the incubation. Percent inhibition is calculated by the comparison of the compounds treated to the various control incubations.
as §1

Sequence of human COX-2 (P35354 18-604 limits assumed): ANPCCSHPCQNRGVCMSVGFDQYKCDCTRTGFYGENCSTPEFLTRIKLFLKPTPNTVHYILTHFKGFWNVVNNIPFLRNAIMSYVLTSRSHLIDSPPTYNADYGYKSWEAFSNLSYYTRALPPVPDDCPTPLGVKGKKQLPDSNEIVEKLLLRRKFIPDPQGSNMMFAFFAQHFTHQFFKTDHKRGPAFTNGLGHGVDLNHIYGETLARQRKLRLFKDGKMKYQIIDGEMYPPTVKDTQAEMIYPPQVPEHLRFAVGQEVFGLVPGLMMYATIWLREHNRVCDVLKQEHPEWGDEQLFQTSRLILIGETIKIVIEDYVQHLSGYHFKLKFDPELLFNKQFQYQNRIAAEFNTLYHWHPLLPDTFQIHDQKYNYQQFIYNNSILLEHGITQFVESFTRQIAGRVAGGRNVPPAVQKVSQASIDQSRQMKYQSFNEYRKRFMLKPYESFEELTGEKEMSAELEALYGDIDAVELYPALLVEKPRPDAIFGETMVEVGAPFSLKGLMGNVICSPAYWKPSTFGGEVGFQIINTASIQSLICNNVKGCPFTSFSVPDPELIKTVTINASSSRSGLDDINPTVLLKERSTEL
Sequence of ovine COX-1 (P05979 25-600 limits assumed): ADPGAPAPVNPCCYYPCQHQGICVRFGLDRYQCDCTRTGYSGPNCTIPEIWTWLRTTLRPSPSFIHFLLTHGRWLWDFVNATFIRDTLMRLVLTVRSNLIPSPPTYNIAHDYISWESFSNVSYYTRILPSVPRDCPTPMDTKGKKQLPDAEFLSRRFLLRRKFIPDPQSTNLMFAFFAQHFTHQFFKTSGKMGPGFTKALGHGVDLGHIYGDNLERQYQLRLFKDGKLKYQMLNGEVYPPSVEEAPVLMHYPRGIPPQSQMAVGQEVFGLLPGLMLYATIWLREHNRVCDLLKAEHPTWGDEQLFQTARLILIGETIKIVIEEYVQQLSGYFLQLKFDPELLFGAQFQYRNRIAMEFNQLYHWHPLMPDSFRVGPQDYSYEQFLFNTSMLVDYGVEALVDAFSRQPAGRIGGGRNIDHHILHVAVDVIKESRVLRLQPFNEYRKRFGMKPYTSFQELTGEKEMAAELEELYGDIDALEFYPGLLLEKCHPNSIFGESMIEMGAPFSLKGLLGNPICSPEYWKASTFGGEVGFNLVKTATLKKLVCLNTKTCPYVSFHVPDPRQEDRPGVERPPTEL

In general, IC50 refers to the concentration that gives 50% inhibition. As to `NS(=O)(=O)c1ccc(-n2nc(CCCCCCCCN3CC[S][Re]4(=[O])[S]CC[N]4CC3)cc2-c2ccc(Cl)cc2)cc1` (stereo not drawn) [Compound 9], the IC50 in experiment [1] came out at 0.11 µM; in experiment [2], 0.19 µM.
Consider `NS(=O)(=O)c1ccc(-n2nc(CCCCCCCN3CC[S][Re]4(=[O])[S]CC[N]4CC3)cc2-c2ccc(F)cc2)cc1` (stereo not drawn) [Compound 3], for which the IC50 in experiment [1] was over 10 µM.
For the compound `NS(=O)(=O)c1ccc(-n2nc(COCCCCCC[N+]34CC[S][Re]35(=[O])[S]CC[N]5CC4)cc2-c2ccc(F)cc2)cc1` (stereo not drawn) [Compound 14], the IC50 in experiment [1] is 2.36 µM.
Consider `COc1ccc(-c2cc(CCCCCCCCC[N+]34CC[S][Re]35(=[O])[S]CC[N]5CC4)nn2-c2ccc(S(N)(=O)=O)cc2)cc1` (stereo not drawn) [Compound 10], for which the IC50 in experiment [1] is 0.06 µM; in experiment [2], 0.16 µM; in experiment [3], over 10 µM.
Take `NS(=O)(=O)c1ccc(-n2nc(COCCCOCCCN3CC[S][Re]4(=[O])[S]CC[N]4CC3)cc2-c2ccc(F)cc2)cc1` (stereo not drawn) [Compound 17]: in experiment [1], the half-inhibitory concentration (IC50) was determined as 4.15 µM.
On to `NS(=O)(=O)c1ccc(-n2nc(CCCCCCCCN3CC[S][Re]4(=[O])[S]CC[N]4CC3)cc2-c2ccc(F)cc2)cc1` (stereo not drawn) [Compound 4], for which the IC50 in experiment [1] came to 0.59 µM; in experiment [2], 0.32 µM.
Regarding `Cc1ccc(-c2cc(COCCCCCCC[N+]34CC[S][Re]35(=[O])[S]CC[N]5CC4)nn2-c2ccc(S(N)(=O)=O)cc2)cc1` (stereo not drawn) [Compound 21], the values for the half-inhibitory concentration (IC50) in experiment [1] and in experiment [2] were 2.48 µM and 0.15 µM, respectively.
Consider `NS(=O)(=O)c1ccc(-n2nc(COCCCCCCN3CC[S][Re]4(=[O])[S]CC[N]4CC3)cc2-c2ccc(Cl)cc2)cc1` (stereo not drawn) [Compound 18], for which, in experiment [1], the IC50 was over 10 µM.
`NS(=O)(=O)c1ccc(-c2c(-c3ccccc3)noc2CCCCCCC[N+]23CC[S][Re]24(=[O])[S]CC[N]4CC3)cc1` (stereo not drawn) [Compound 27]: the IC50 in experiment [1] was 0.07 µM; in experiment [2], 0.07 µM; in experiment [3], over 10 µM.
For the compound `NS(=O)(=O)c1ccc(-n2nc(CCCCCN3CC[S][Re]4(=[O])[S]CC[N]4CC3)cc2-c2ccc(F)cc2)cc1` (stereo not drawn) [Compound 2], the IC50 in experiment [1] is 1.33 µM; in experiment [2], 0.66 µM.
As for `NS(=O)(=O)c1ccc(-n2nc(COCCCC[N+]34CC[S][Re]35(=[O])[S]CC[N]5CC4)cc2-c2ccc(F)cc2)cc1` (stereo not drawn) [Compound 15], the concentration for half-maximal inhibition (IC50) in experiment [1] is 2.37 µM.
Take `Cc1ccc(-c2cc(CCCCCCCCCN3CC[S][Re]4(=[O])[S]CC[N]4CC3)nn2-c2ccc(S(N)(=O)=O)cc2)cc1` (stereo not drawn) [Compound 11]: the IC50 in experiment [1] worked out at 4.49 µM; in experiment [2], 0.2 µM.
Consider `NS(=O)(=O)c1ccc(-n2nc(CCCCCCN3CC[S][Re]4(=[O])[S]CC[N]4CC3)cc2-c2ccc(Cl)cc2)cc1` (stereo not drawn) [Compound 6], for which the IC50 in experiment [1] is 3.31 µM.
Turning to `NS(=O)(=O)c1ccc(-n2nc(COCCCCCCC[N+]34CC[S][Re]35(=[O])[S]CC[N]5CC4)cc2-c2ccc(F)cc2)cc1` (stereo not drawn) [Compound 16], the IC50 was 0.31 µM in experiment [1], 0.21 µM in experiment [2] and over 10 µM in experiment [3].
For `COc1ccc(-c2cc(COCCCCCCN3CC[S][Re]4(=[O])[S]CC[N]4CC3)nn2-c2ccc(S(N)(=O)=O)cc2)cc1` (stereo not drawn) [Compound 19], the IC50 in experiment [1] stood at 4.51 µM.
With `NS(=O)(=O)c1ccc(-c2c(-c3ccccc3)noc2CCCCCCCCC[N+]23CC[S][Re]24(=[O])[S]CC[N]4CC3)cc1` (stereo not drawn) [Compound 28], the results for the half-maximal inhibitory concentration (IC50) in experiment [1], in experiment [2] and in experiment [3] were 0.019 µM, 0.025 µM and over 10 µM, respectively.
Take `NS(=O)(=O)c1ccc(-n2nc(CCCCCCCN3CC[S][Re]4(=[O])[S]CC[N]4CC3)cc2-c2ccc(Cl)cc2)cc1` (stereo not drawn) [Compound 7]: the IC50 in experiment [1] was over 10 µM.
Turning to `COc1ccc(-c2cc(COCCCCCCCN3CC[S][Re]4(=[O])[S]CC[N]4CC3)nn2-c2ccc(S(N)(=O)=O)cc2)cc1` (stereo not drawn) [Compound 20], the IC50 in experiment [1] amounted to 0.54 µM; in experiment [2] it was 0.22 µM.
On to `NS(=O)(=O)c1ccc(-n2nc(CCCCCCCCC[N+]34CC[S][Re]35(=[O])[S]CC[N]5CC4)cc2-c2ccc(F)cc2)cc1` (stereo not drawn) [Compound 5], for which the 50% inhibitory concentration (IC50) in experiment [1] is 0.13 µM; in experiment [2] it was 0.15 µM; in experiment [3] it was over 10 µM.
As for `NS(=O)(=O)c1ccc(-n2nc(CCCCCCCCC[N+]34CC[S][Re]35(=[O])[S]CC[N]5CC4)cc2-c2ccc(Cl)cc2)cc1` (stereo not drawn) [Compound 8], the values for the half-inhibitory concentration (IC50) in experiment [1] and in experiment [2] were 0.19 µM and 0.2 µM, respectively.
The matching figures for `NS(=O)(=O)c1ccc(-c2c(-c3ccccc3)noc2CCCCCC[N+]23CC[S][Re]24(=[O])[S]CC[N]4CC3)cc1` (stereo not drawn) [Compound 26]: 0.16 µM and 0.23 µM.

Values taken from US20250255992A1, “COXIB-DERIVED CONJUGATE COMPOUNDS AND METHODS OF USE THEREOF” (Reiley Pharmaceuticals, Inc., priority 2020, published 2025).
